Measured values: ChEMBL document CHEMBL1201862, “PubChem BioAssay data set” (2004)
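Five compound concentrations were applied to cells in 96-well plates for 48 hours; endpoints were derived by simple linear interpolation of the resulting dose-response curve. The concentration for 50% growth inhibition is given as GI50.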 Active and inactive are the calls of the source. Rule as the data show it: active = GI50 up to about 1.1 µM and inactive = higher.

Key:
Assay in all cases: NCI-60 cell line screen, 48 h
HOP-62 = test system: HOP-62
OVCAR-4 = test system: OVCAR-4
SF-295 = test system: SF-295
NCI-H23 = test system: NCI-H23
MOLT-4 = test system: MOLT-4
UACC-257 = test system: UACC-257
EKVX = test system: EKVX
NCI-H522 = test system: NCI-H522
HCT-116 = test system: HCT-116
SK-MEL-5 = test system: SK-MEL-5
KM12 = test system: KM12
SNB-75 = test system: SNB-75
NCI-H226 = test system: NCI-H226
A498 = test system: A498
SK-OV-3 = test system: SK-OV-3
LOX IMVI = test system: LOX IMVI
HL-60 = test system: HL-60
SNB-19 = test system: SNB-19
SR = test system: SR

Measured: GI50

Cn1c2ccccc2n2c(=O)c3cccnc3c(C#N)c12
inactive: HOP-62 76.2 µM | OVCAR-4 > 100 µM | SF-295 > 100 µM | NCI-H23 33.3 µM | MOLT-4 7.45 µM | UACC-257 > 100 µM | EKVX > 100 µM | NCI-H522 14.7 µM | HCT-116 94.2 µM | SK-MEL-5 9.51 µM | KM12 > 100 µM | SNB-75 > 100 µM | NCI-H226 4.42 µM | A498 > 100 µM | SK-OV-3 > 100 µM | LOX IMVI 39.1 µM

COc1cc(/N=N\c2ccc(OC)c(S(=O)(=O)O)c2)c(C)cc1/N=N\c1ccc(/C=C/c2ccc(/N=[N+](/[O-])c3ccc(/C=C/c4ccc(/N=N/c5cc(C)c(/N=N\c6ccc(OC)c(S(=O)(=O)O)c6)cc5OC)cc4S(=O)(=O)O)c(S(=O)(=O)O)c3)cc2S(=O)(=O)O)c(S(=O)(=O)O)c1
inactive: HOP-62 > 100 µM | OVCAR-4 > 100 µM | SF-295 > 100 µM | NCI-H23 > 100 µM | MOLT-4 > 100 µM | UACC-257 > 100 µM | EKVX > 100 µM | HL-60 69.8 µM | NCI-H522 > 100 µM | HCT-116 > 100 µM | SK-MEL-5 > 100 µM | KM12 > 100 µM | SNB-75 58.2 µM | NCI-H226 > 52.1 µM | A498 > 100 µM | SK-OV-3 > 100 µM | SNB-19 > 100 µM | LOX IMVI > 100 µM

CC(C)CC(N)C(=O)OCN1C(=O)C2C3C=CC(C2C1=O)C1C2C(=O)N(COC(=O)C(N)CC(C)C)C(=O)C2C31 (configuration not stated)
inactive: HOP-62 > 100 µM | OVCAR-4 > 100 µM | SF-295 > 100 µM | NCI-H23 > 100 µM | MOLT-4 > 100 µM | UACC-257 > 100 µM | EKVX > 100 µM | HL-60 30.4 µM | NCI-H522 > 100 µM | HCT-116 > 43.8 µM | SK-MEL-5 > 100 µM | KM12 > 100 µM | SNB-75 > 75 µM | NCI-H226 > 100 µM | A498 > 100 µM | SK-OV-3 > 100 µM | SNB-19 > 100 µM | LOX IMVI > 41.5 µM

COc1ccc(CCc2cc(OC)c(O)c(OC)c2)cc1
inactive: HOP-62 98.6 µM | OVCAR-4 81.5 µM | SR 37.3 µM | NCI-H23 37.2 µM | MOLT-4 35.7 µM | UACC-257 29.3 µM | EKVX > 100 µM | NCI-H522 29.7 µM | HCT-116 59 µM | SK-MEL-5 32.8 µM | KM12 58.2 µM | SNB-75 29.4 µM | NCI-H226 41.8 µM | SK-OV-3 > 100 µM | SNB-19 98.6 µM

O=C1CC(c2ccc[nH]2)=NN1c1ccccc1
inactive: HOP-62 > 100 µM | OVCAR-4 > 100 µM | SF-295 > 100 µM | NCI-H23 > 100 µM | MOLT-4 27.8 µM | UACC-257 > 100 µM | EKVX > 100 µM | HL-60 > 100 µM | NCI-H522 > 100 µM | HCT-116 > 100 µM | SK-MEL-5 > 100 µM | KM12 > 100 µM | SNB-75 > 100 µM | NCI-H226 > 100 µM | A498 > 100 µM | SK-OV-3 > 100 µM | SNB-19 > 100 µM | LOX IMVI > 100 µM

COc1ccc(OC)c2c1C(=O)C1CC1(Br)C2=O (configuration not stated)
inactive: HOP-62 > 100 µM | OVCAR-4 > 100 µM | SF-295 > 100 µM | NCI-H23 > 100 µM | MOLT-4 > 100 µM | UACC-257 > 100 µM | EKVX 73.1 µM | HL-60 > 100 µM | NCI-H522 > 100 µM | HCT-116 > 100 µM | SK-MEL-5 > 100 µM | KM12 > 100 µM | A498 > 100 µM | SK-OV-3 > 100 µM | SNB-19 > 100 µM | LOX IMVI > 100 µM

NC(=O)c1ccc([N+](=O)[O-])cc1
inactive: HOP-62 > 100 µM | SF-295 > 100 µM | NCI-H23 > 100 µM | MOLT-4 > 100 µM | UACC-257 > 100 µM | EKVX > 100 µM | NCI-H522 > 100 µM | SK-MEL-5 > 100 µM | KM12 > 100 µM | SNB-75 > 100 µM | NCI-H226 > 100 µM | A498 > 100 µM | SK-OV-3 > 100 µM | SNB-19 > 100 µM | LOX IMVI > 100 µM

COc1cccc(N2C(=O)[C@H]3CC(C)c4c([nH]c5ccccc45)[C@H]3C2=O)c1 (some centres not stated)
inactive: HOP-62 16.8 µM | SF-295 23.3 µM | NCI-H23 45.7 µM | MOLT-4 74.1 µM | UACC-257 42.9 µM | EKVX > 100 µM | HL-60 > 100 µM | NCI-H522 24.9 µM | SK-MEL-5 63.8 µM | KM12 57.5 µM | SNB-75 19.6 µM | NCI-H226 93.5 µM | A498 89.7 µM | SK-OV-3 27.7 µM | SNB-19 28.4 µM | LOX IMVI 50.6 µM
